Laboratory results from ChEMBL document CHEMBL1122600, “Receptor binding sites of hypoglycemic sulfonylureas and related [(acylamino)alkyl]benzoic acids” (1984).

Tested on: Rattus norvegicus
Test: Effect of the compound (50 mg/kg, po) on rat blood sugar level which was given an oral glucose load (1 g/kg) 1 hr after the administration of compound
Type: functional

Row | SMILES | Change in rat blood sugar [%]
1 | COc1ccc(Cl)cc1C(=O)NCCc1ccc(C(C)O)cc1 (stereo not given) | -11
2 | COc1ccc(Cl)cc1C(=O)NCCc1ccccc1 | -7
3 | COc1ccc(Cl)cc1C(=O)NCCc1ccc(Cl)cc1 | 0
4 | COc1ccc(Cl)cc1C(=O)NCCc1ccc(O)cc1 | 2
5 | COc1ccc(Cl)cc1C(=O)NCCc1ccc(C(C)=O)cc1 | -11
6 | COc1ccc(Cl)cc1C(=O)NCCc1ccc(N)cc1 | 7
7 | COc1ccc(Cl)cc1C(=O)NCCCCCC(=O)O | 9
8 | COc1ccc(Cl)cc1C(=O)NCCc1ccc(OCC(=O)O)cc1 | -9
9 | CCc1ccc(CCNC(=O)c2cc(Cl)ccc2OC)cc1 | -4
10 | C=Cc1ccc(CCNC(=O)c2cc(Cl)ccc2OC)cc1 | -6
11 | COc1ccc(Cl)cc1C(=O)NCCc1ccc([N+](=O)[O-])cc1 | 2
12 | COc1ccc(Cl)cc1C(=O)NCCc1ccc(C(F)(F)F)cc1 | -3
13 | COc1ccc(Cl)cc1C(=O)NCCc1ccc(C)cc1 | -55
14 | COc1ccc(Cl)cc1C(=O)NCCc1ccc(S(=O)(=O)NC(=O)NC2CCCCC2)cc1 [GLYBURIDE] | -44
15 | COc1ccc(Cl)cc1C(=O)NCCc1ccc(C(=O)O)cc1 [MEGLITINIDE] | -63
